# Results published in patent publication US10308631B2, “Selective anti-cancer compounds” (NATIONAL UNIVERSITY OF SINGAPORE, priority 2015, dated 2019).
# Tests used:
# [1] = system: non-transformed BJ cells depleted of p53 by shRNA-mediated knockdown; assay: BrdU incorporation and FACS analysis (cell cycle arrest), p53 knockdown; assay type: cell-based, human; conditions: 2.5 and 5 μM, 24 h
# Protocol: A: is output from a FACS analysis of isogenic-non-transformed, without (panels a-c) (WT) or with (panels d-f) shRNA-mediated knockdown of p53 (p53KD), and oncogene-transformed BJ cells (panels g-i), each treated with 0, 5 or 2.5 μM Compound 1 (a131) for 24 h. Cells were doubly stained with PI (horizontal axis) and BrdU (vertical axis). The BrdU-positive population in panels a-c are indicated as arrows. B: is a diagrammatic representation of an immunoblot analysis showing isogenic non-transformed (normal) and oncogene-transformed BJ cells (transformed) treated with Compound 1 (a131) at 0, 2.5 or 5 μM for 24 h or 48 h. Cells were harvested and total lysates were analysed by detecting p53 and p21. Antibodies raised against β-actin were used as an internal loading control. C and D are histograms showing the percentage of bromodeoxyuracil (BrdU)-positive non-transformed (normal) BJ cells. C: Cells were treated with Group 1 Compound 1 (a131) at 2.5 and 5 μM, Compound 23 (b36) at 2.5 and 5 μM, and Compound 21 (b35) at 5 μM, and Group 2 Compound 25 (a166) at 2.5 and 5 μM, for 24 h. Cells were doubly stained with propidium iodide (PI) and BrdU, and subjected to FACS analysis. The BrdU-positive population are plotted as bars. […]
# [2] = system: non-transformed normal BJ cells; assay: BrdU incorporation and FACS analysis (cell cycle arrest); assay type: cell-based, human
# Protocol: A: is output from a FACS analysis of isogenic-non-transformed, without (panels a-c) (WT) or with (panels d-f) shRNA-mediated knockdown of p53 (p53KD), and oncogene-transformed BJ cells (panels g-i), each treated with 0, 5 or 2.5 μM Compound 1 (a131) for 24 h. Cells were doubly stained with PI (horizontal axis) and BrdU (vertical axis). The BrdU-positive population in panels a-c are indicated as arrows. B: is a diagrammatic representation of an immunoblot analysis showing isogenic non-transformed (normal) and oncogene-transformed BJ cells (transformed) treated with Compound 1 (a131) at 0, 2.5 or 5 μM for 24 h or 48 h. Cells were harvested and total lysates were analysed by detecting p53 and p21. Antibodies raised against β-actin were used as an internal loading control. C and D are histograms showing the percentage of bromodeoxyuracil (BrdU)-positive non-transformed (normal) BJ cells. C: Cells were treated with Group 1 Compound 1 (a131) at 2.5 and 5 μM, Compound 23 (b36) at 2.5 and 5 μM, and Compound 21 (b35) at 5 μM, and Group 2 Compound 25 (a166) at 2.5 and 5 μM, for 24 h. Cells were doubly stained with propidium iodide (PI) and BrdU, and subjected to FACS analysis. The BrdU-positive population are plotted as bars. D: Cells were treated with Group 1 Compound 1 (a131), Compound 16 (b5), and Compound 17 (b9); Group 2 Compound 13 (b12), Compound 12 (b16) and Compound 25 (a166), and Group 3 Compound 3 (a159) at 5 μM for 48 h. The percentage of cells with BrdU positive population, in comparison with DMSO control vehicle, is shown with mean values±S.D. (n=3).
# Isogenic non-transformed and oncogene-transformed BJ cells (cultured as in Biology Example 3) were treated with Compound 1 at final concentrations of 2.5 and 5 μM for 24 h. The treated cells were then treated with 30 μM final concentration of 5-bromo-2′-deoxyuridine (BrdU, SIGMA) for 1 h to detect DNA synthesis as a marker for cell proliferation. Subsequently, the cells were fixed in EtOH at 4° C. overnight and permeabilized with 2N HCl/0.5% Triton X-100 for 30 min. The cells were then treated with 0.1M sodium tetraborate for 2 min and stained with anti-BrdU antibody (Invitrogen, Cat#B35129) for 60 min, followed by a 30 min treatment with 20 μg/mL of propidium iodide (PI) and 10 μg/mL RNaseA.
# Furthermore, the abilities of additional five (5) Compounds to arrest cells at the stage of G1/S phase of the cell cycle were evaluated. […] The abilities of these Compounds to arrest cells at the stage of G1/S phase of the cell cycle were then measured by using BrdU incorporation assay and FACS analysis. The percentage of cells with BrdU positive population in comparison with DMSO control vehicle was determined and plotted with mean values±S.D. (n=3).
# [3] = system: HCT-15 human colon adenocarcinoma xenografts; assay: Tumour xenograft efficacy, tumour volume; assay type: in vivo, mice; conditions: HCT15 xenografts; PO or IP twice a day, 12 days; vs vehicle
# Protocol: (§1) A, B: is a graphical representation of tumour volumes estimated periodically as indicated. Mice bearing established tumour xenografts using HCT15 or MDA-MB-231 cells were treated orally (PO) or intraperitoneally (IP) twice a day with the indicated doses of Compound 1 or Compound 16 for 12 or 15 days. Paclitaxel (PTX) was given intravenously at dose of 40 mg/kg, 3 times every 4 days. Error bars show ±S.D. from mean tumour volumes obtained from 6 mice. Student's t-test was performed to determine the statistical significance (*=p<0.005). C: is a bar graph showing quantification of cells (n>100 per condition) with misaligned chromosomes and multipolar mitotic-spindles. […] tumour sections treated with Compound 16 (80 mg/kg) or control vehicle for 12 days were stained with anti-β-tubulin antibodies and DAPI. The percentage of cells with misaligned chromosomes and multipolar mitotic-spindles was quantified and plotted with mean values±S.D.
# Mice bearing established tumor xenografts using HCT15 or MDA-MB-231 cells were treated orally (PO) or intraperitoneally (IP) twice a day with the indicated doses of Compound 1 or its derivative Compound 16 (b5) for 12 or 15 days, respectively. For comparison, paclitaxel (PTX) was given intravenously to mice bearing established tumour xenografts using HCT15 at dose of 40 mg/kg, 3 times every 4 days.
# [4] = system: non-transformed normal BJ cells; assay: Reversibility of cell cycle arrest after wash-out (cell counting); assay type: cell-based, human; conditions: 5 μM for 2, 3, 6 or 11 days, then wash-out
# Excerpt: Non-transformed normal BJ cells were synchronized in G1 phase of the cell cycle by culturing in serum-starved conditions (0.1% FBS) for 2 days. Subsequently, cells were synchronously released in fresh media with 10% FBS and further treated with Compound 1 (a131) for 2, 3, 6 or 11 days. After treatment for the required amount of time, Compound 1 (a131) was removed by washing cells twice with fresh media, and culturing of the washed cells was continued in fresh media for up to 11 days. Cells were harvested and total numbers of cells, counted using automated Sceptor cell counter, were plotted with standard deviation (triplicates).
# As shown in Biology Examples 5 and 7, Compound 1 and its derivatives, which inhibit both lysosome function and mitosis, induce cell death only in transformed BJ cells, while inducing cell cycle arrest in isogenic non-transformed BJ cells. However, it was not fully clear if the cell cycle arrest was permanent or reversible. Therefore, to evaluate whether the effect was permanent or reversible, non-transformed normal BJ cells were synchronized in the G1 phase of the cell cycle by culturing them in DMEM media with 0.1% FBS for 2 days. […] At various time-points, the adherent cells were harvested with trypsin (Invitrogen) and the total number of cells was counted using automated Sceptor cell counter (Millipore).
# HCT-15 tumour sections = assay: Immunofluorescence analysis of xenograft tumour sections; assay type: in vivo, mice; conditions: 80 mg/kg, 12 days, vs control vehicle
# Protocol: as §1
# To confirm the antimitotic efficacy of Compound 16 (b5) in vivo, immunofluorescence analysis of HCT-15 tumor sections treated with Compound 16 (80 mg/kg) or control vehicle for 12 days were stained with anti-β-tubulin antibodies and DAPI.
# Aqueous solubility = assay type: physicochemical; conditions: compared with Compound 1
compound,measurement,setting,value
"N#C/C(=C\c1cccc2cnccc12)c1c[nH]c2ccccc12 [Compound 1, (Z)-2-(1H-indol-3-yl)-3-(isoquinolin-5-yl)acrylonitrile]",cell cycle arrest in p53-depleted cells,[1],ability of Compound 1 to induce cell cycle arrest was compromised
same,BrdU-positive cell population,"[2]; 24 h, 2.5 and 5 μM (FIG. 9A, 9C)",markedly decreased the number of BrdU-positive non-transformed normal BJ cells
same,anti-tumour effect (tumour volume),[3],showed marked anti-tumour effects
same,recovery of proliferation after removal of compound,[4],removal of Compound 1 from the media is sufficient to enable these cells to recover from cell cycle arrest
"N#C/C(=C\c1cccc2ncccc12)c1c[nH]c2ccccc12 [Compound 3, (Z)-2-(1H-indol-3-yl)-3-(quinolin-5-yl)acrylonitrile]",arrest at the G1/S phase of the cell cycle (BrdU incorporation),"[2]; 5 μM, 48 h (FIG. 9D)",failed to do so
"CN1CCN(CC(=O)n2cc(/C(C#N)=C/c3cccc4cnccc34)c3ccccc32)CC1 [Compound 16, (Z)-3-(isoquinolin-5-yl)-2-(1-(2-(4-methylpiperazin-1-yl)acetyl)-1H-indol-3-yl)acrylonitrile]",anti-tumour effect (tumour volume),[3],showed marked anti-tumour effects
same,cancer cells with misaligned chromosomes and multipolar mitotic-spindles,HCT-15 tumour sections,significantly increased the number of cancer cells harbouring massively misaligned chromosomes with multipolar mitotic-spindles
same,aqueous solubility,Aqueous solubility,improved aqueous solubility
